Data: patent US7763627B2, “Tie-2 modulators and methods of use” (Exelixis, Inc., priority 2003, dated 2010)

molecular target: Tie-2 (Homo sapiens, UniProt Q02763); assay: Tie-2 tyrosine kinase inhibition (ATP consumption by luciferase/luciferin chemiluminescence or 33P-ATP incorporation into pEY substrate); assay type: biochemical; settings: human enzyme Tie-2; inhibition given as class symbol
Experimental: Tyrosine kinase activity is determined by 1) measurement of kinase-dependent ATP consumption by in the presence of a generic substrate such as polyglutamine, tyrosin (pEY), by luciferase/luciferin-mediated chemiluminescence or; 2) incorporation of radioactive phosphate derived from ^33P-ATP into a generic substrate which has been adsorbed onto the well surface of polystyrene microtiter plates. Phosphorylated substrate products are quantified by scintillation spectrometry.
Inhibition is indicated as IC50 with following key: A=IC50 less than 50 nM, B=IC50 greater than 50 nM, but less than or equal to 1000 nM, C=IC50 greater than 1000 nM, but less than 10,000 nM, and D=IC50 10,000 nM or greater. The abbreviation for human enzyme, Tie-2, is defined as tyrosine kinase with immunoglobulin and EGF repeats.

Sequence of Tie-2 (Q02763 23-1124): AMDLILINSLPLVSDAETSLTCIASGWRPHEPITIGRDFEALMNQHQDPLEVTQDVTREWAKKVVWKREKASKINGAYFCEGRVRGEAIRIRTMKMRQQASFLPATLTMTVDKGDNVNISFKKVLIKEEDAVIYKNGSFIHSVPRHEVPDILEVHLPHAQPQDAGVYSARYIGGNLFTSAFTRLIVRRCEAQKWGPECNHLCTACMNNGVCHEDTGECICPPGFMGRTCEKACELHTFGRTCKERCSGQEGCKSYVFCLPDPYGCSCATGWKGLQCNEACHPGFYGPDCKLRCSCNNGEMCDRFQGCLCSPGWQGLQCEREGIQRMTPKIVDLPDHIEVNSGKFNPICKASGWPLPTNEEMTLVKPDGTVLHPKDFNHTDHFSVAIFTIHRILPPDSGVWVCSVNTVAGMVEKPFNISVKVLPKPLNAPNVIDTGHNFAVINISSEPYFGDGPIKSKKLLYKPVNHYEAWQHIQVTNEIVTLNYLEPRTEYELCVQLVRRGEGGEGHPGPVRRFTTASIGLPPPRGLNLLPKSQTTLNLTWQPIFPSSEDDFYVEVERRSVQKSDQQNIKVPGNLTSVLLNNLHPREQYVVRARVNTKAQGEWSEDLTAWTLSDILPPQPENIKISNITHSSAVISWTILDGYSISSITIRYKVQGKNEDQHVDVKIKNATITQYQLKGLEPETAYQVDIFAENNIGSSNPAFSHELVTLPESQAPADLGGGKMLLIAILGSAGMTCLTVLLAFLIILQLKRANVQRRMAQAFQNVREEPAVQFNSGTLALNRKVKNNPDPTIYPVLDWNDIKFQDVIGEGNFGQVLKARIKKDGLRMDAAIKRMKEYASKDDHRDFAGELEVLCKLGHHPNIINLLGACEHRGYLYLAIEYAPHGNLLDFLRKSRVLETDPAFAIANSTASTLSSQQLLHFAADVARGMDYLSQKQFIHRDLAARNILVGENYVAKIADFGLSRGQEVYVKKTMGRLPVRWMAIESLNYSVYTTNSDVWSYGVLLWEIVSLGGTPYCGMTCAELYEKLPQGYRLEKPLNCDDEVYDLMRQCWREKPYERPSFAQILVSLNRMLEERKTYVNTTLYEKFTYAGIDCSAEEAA

Compound	IC50 [µM]
COc1cc2nc(-c3ccncc3)nc(N[C@H]3c4ccccc4C[C@H]3O)c2cc1OC [Compound 46, (1S,2R)-1-{[6,7-bis(methyloxy)-2-pyridin-4-ylquinazolin-4-yl]amino}-2,3-dihydro-1H-inden-2-ol]	0.05 to 1
OC1CCCN(c2nc(-c3ccncc3)nc3ccccc23)C1 (stereo not shown) [Compound 47, 1-(2-pyridin-4-ylquinazolin-4-yl)piperidin-3-ol]	≥ 10
O[C@@H]1Cc2ccccc2[C@@H]1Nc1nc(-c2ccncc2)nc2cc(C(F)(F)F)ccc12 [Compound 48, (1S,2R)-1-{[2-pyridin-4-yl-7-(trifluoromethyl)quinazolin-4-yl]amino}-2,3-dihydro-1H-inden-2-ol]	0.05 to 1
COc1ccc(-c2nc(N[C@H]3c4ccccc4C[C@H]3O)c3ccccc3n2)cn1 [Compound 49, (1S,2R)-1-({2-[6-(methyloxy)pyridin-3-yl]quinazolin-4-yl}amino)-2,3-dihydro-1H-inden-2-ol]	1 to 10
c1ccc2c(N[C@H]3CCCNC3)nc(-c3ccncc3)nc2c1 [Compound 50, N-[(3S)-piperidin-3-yl]-2-pyridin-4-ylquinazolin-4-amine]	≥ 10
Cc1ccc2c(N[C@H]3c4ccccc4C[C@H]3O)nc(-c3ccncc3)nc2c1 [Compound 51, (1S,2R)-1-[(7-methyl-2-pyridin-4-ylquinazolin-4-yl)amino]-2,3-dihydro-1H-inden-2-ol]	< 0.05
COc1ncc(-c2nc(N[C@H]3c4ccccc4C[C@H]3O)c3ccccc3n2)c(OC)n1 [Compound 52, (1S,2R)-1-({2-[2,4-bis(methyloxy)pyrimidin-5-yl]quinazolin-4-yl}amino)-2,3-dihydro-1H-inden-2-ol]	≥ 10
CC(C)[C@H](CO)Nc1nc(-c2ccncc2)nc2ccccc12 [Compound 53, (2R)-3-methyl-2-[(2-pyridin-4-ylquinazolin-4-yl)amino]butan-1-ol]	≥ 10
CC(C)[C@@H](CO)Nc1nc(-c2ccncc2)nc2ccccc12 [Compound 54, (2S)-3-methyl-2-[(2-pyridin-4-ylquinazolin-4-yl)amino]butan-1-ol]	1 to 10
OC[C@@H](Nc1nc(-c2ccncc2)nc2ccccc12)c1ccccc1 [Compound 55, (2S)-2-phenyl-2-[(2-pyridin-4-ylquinazolin-4-yl)amino]ethanol]	1 to 10
OC[C@H](Nc1nc(-c2ccncc2)nc2ccccc12)c1ccccc1 [Compound 56, (2R)-2-phenyl-2-[(2-pyridin-4-ylquinazolin-4-yl)amino]ethanol]	1 to 10
O[C@@H]1Cc2ccccc2[C@@H]1Nc1ccnc(-c2ccncc2)n1 [Compound 57, (1S,2R)-1-[(2-pyridin-4-ylpyrimidin-4-yl)amino]-2,3-dihydro-1H-inden-2-ol]	0.05 to 1
O[C@@H]1Cc2ccccc2[C@@H]1Nc1nc(-c2cnccn2)nc2ccccc12 [Compound 58, (1S,2R)-1-[(2-pyrazin-2-ylquinazolin-4-yl)amino]-2,3-dihydro-1H-inden-2-ol]	≥ 10
Nc1ccncc1-c1nc(N[C@H]2c3ccccc3C[C@H]2O)c2ccccc2n1 [Compound 59, (1S,2R)-1-{[2-(4-aminopyridin-3-yl)quinazolin-4-yl]amino}-2,3-dihydro-1H-inden-2-ol]	≥ 10
OC[C@@H](Cc1ccccc1)Nc1nc(-c2ccncc2)nc2ccccc12 [Compound 60, (2R)-3-phenyl-2-[(2-pyridin-4-ylquinazolin-4-yl)amino]propan-1-ol]	≥ 10
OC[C@H](Cc1ccccc1)Nc1nc(-c2ccncc2)nc2ccccc12 [Compound 61, (2S)-3-phenyl-2-[(2-pyridin-4-ylquinazolin-4-yl)amino]propan-1-ol]	1 to 10
OCCN(Cc1ccccc1)c1nc(-c2ccncc2)nc2ccccc12 [Compound 62, 2-[(phenylmethyl)(2-pyridin-4-ylquinazolin-4-yl)amino]ethanol]	1 to 10
Nc1nccc(-c2nc(N[C@H]3c4ccccc4C[C@H]3O)c3ccccc3n2)n1 [Compound 63, (1S,2R)-1-{[2-(2-aminopyrimidin-4-yl)quinazolin-4-yl]amino}-2,3-dihydro-1H-inden-2-ol]	0.05 to 1
Oc1ccc(-c2nc(N[C@H]3c4ccccc4C[C@H]3O)c3ccccc3n2)cn1 [Compound 64, 5-(4-{[(1S,2R)-2-hydroxy-2,3-dihydro-1H-inden-1-yl]amino}quinazolin-2-yl)pyridin-2-ol]	≥ 10
CSc1nccc(-c2nc(N[C@H]3c4ccccc4C[C@H]3O)c3ccccc3n2)n1 [Compound 65, (1S,2R)-1-({2-[2-(methylthio)pyrimidin-4-yl]quinazolin-4-yl}amino)-2,3-dihydro-1H-inden-2-ol]	≥ 10
OCCN1CCN(Nc2nc(-c3ccncc3)nc3ccccc23)CC1 [Compound 66, 2-{-4-[(2-pyridin-4-ylquinazolin-4-yl)amino]piperazin-1-yl}ethanol]	≥ 10
c1ccc2c(NN3CCCCC3)nc(-c3ccncc3)nc2c1 [Compound 67, N-piperidin-1-yl-2-pyridin-4-ylquinazolin-4-amine]	≥ 10
